Experimental data reported in patent US20230087609A1, “USE OF A SOLUBLE GUANYLATE CYCLASE (sGC) STIMULATOR OR OF A COMBINATION OF A sGC STIMULATOR AND AN sGC ACTIVATOR FOR CONDITIONS WHEREIN THE HEME GROUP OF sGC IS OXIDIZED OR WHEREIN sGC IS DEFICIENT IN HEME” (Universiteit Maastricht, priority 2020, published 2023).

Target: T1, apo-sGC (sGCβ1 H105F knock-in) (Mus musculus, UniProt O54865, H105F)
T1 construct: from tissue; host or cells: lung homogenate of homozygous sGCβ1 H105F knock-in mice
T1 sequence (O54865 1-620 H105F): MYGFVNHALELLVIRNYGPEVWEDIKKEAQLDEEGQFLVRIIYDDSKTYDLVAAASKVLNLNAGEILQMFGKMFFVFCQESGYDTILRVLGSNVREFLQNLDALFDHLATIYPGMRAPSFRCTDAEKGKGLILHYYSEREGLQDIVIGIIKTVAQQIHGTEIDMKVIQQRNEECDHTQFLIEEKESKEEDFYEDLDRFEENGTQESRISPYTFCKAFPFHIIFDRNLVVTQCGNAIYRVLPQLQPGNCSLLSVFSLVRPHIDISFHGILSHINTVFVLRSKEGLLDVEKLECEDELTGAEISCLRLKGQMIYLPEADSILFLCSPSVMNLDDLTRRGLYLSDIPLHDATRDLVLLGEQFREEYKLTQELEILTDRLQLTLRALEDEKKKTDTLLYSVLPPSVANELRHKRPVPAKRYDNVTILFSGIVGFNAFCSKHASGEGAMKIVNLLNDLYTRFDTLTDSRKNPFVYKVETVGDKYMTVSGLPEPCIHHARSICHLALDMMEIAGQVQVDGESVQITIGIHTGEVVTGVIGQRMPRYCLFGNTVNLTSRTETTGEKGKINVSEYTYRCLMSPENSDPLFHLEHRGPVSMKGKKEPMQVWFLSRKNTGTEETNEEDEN
T1 sequence (Q9ERL9 1-691 partner): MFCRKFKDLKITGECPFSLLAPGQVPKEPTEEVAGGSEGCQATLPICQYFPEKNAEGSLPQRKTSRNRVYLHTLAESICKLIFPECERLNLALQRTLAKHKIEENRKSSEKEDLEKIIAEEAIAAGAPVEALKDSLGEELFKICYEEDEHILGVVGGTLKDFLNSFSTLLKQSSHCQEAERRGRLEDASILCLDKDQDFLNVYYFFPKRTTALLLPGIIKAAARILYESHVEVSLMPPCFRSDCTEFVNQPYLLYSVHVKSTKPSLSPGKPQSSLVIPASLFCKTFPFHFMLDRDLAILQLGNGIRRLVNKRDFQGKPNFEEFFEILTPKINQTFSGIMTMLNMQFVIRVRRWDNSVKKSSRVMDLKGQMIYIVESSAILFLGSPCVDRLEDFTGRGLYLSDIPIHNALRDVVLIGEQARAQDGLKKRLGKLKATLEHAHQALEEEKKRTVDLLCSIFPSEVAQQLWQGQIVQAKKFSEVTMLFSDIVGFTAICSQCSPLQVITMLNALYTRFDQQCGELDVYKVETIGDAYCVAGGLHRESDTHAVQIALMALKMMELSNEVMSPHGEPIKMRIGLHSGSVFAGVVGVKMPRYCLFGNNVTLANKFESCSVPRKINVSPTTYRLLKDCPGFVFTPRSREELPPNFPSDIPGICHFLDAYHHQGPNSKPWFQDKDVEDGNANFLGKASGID
Experiment: sGC activity in lung homogenates of apo-sGC mice
Assay type: biochemical
Procedure: Adult male Sprague Dawley (SD) rats (age, 10-12 weeks) were obtained from Animal Resources Centre (Western Australia). Animals were housed on a 12 hour day/night cycle at a room temperature of 20±2° C., in the Department of Pharmacology Animal House, Monash University. The animals were fed standard rodent chow and water was available ad libitum. Homozygous male sGC(1^H105F knock-in mice (“apo-sGC mice”) were kindly provided by Tufts Medical Center, Molecular Cardiology Research Center, Boston, Mass., USA (Toonen et al., Nat Commun. 2015; 6:8482. doi: 10.1038/ncomms9482).
To measure sGC activity, cells were stimulated with 250 μM DEA/NO or 10 μM BAY58-2667 for 3 min at 37° C. Thereafter, cells were immediately lysed in 80% ethanol. Cells were scraped and, after evaporation of ethanol, re-suspended in assay buffer and sonicated. Measurement of sGC activity in crude homogenates of mouse tissue was performed as previously described (Nedvetsky et al., Brain Res. 2002; 950(1-2):148-154. doi: 10.1016/50006-8993(02)03015-9).[9] Briefly, all samples were measured as the formation of cGMP at 37° C. during 10 min in a total incubation volume of […] containing 50 mM triethanolamine-HCl (pH 7.4), 3 mM MgCl2, 3 mM glutathione (Carl Roth, Karlsruhe, Germany), 1 mM IBMX, […], 5 mM creatine phosphate, 0.25 mg/ml creatine kinase and 1 mM or 0.5 mM GTP. After adding sGC activator in the absence or presence of the sGC stimulator the reaction was started by application of GTP solution. Following incubation of each sample for 10 min the reaction was stopped by boiling for 10 min at 95° C. Thereafter the amount of cGMP was subsequently determined by a commercial enzyme immunoassay kit (Enzo Life Sciences, Lorrach, Germany or Biotrend, Cologne, Germany). In some experiments pre-incubation of freshly homogenized tissue with ODQ at 37° C. for 20 min prior measuring sGC activation was required.

For `Nc1nc(-c2nn(Cc3ccccc3F)c3ncccc23)ncc1C1CC1` [BAY 41-2272, 5-cyclopropyl-2-[1-(2-fluoro-benzyl)-1H-pyrazolo[3,4-b]pyridin-3-yl]-pyrimidin-4-ylamine], the “cGMP formation on stimulation with the sGC stimulator” value (10 μM BAY 41-2272, in presence and in absence of 10 μM ODQ (FIG. 11)) was “cGMP is synthesized” and the “sGC activity, response to compound alone” value (lung homogenates of apo-sGC mice, compound alone) was “can also be activated”.
